Data from patent publication US6737428B2, “BIS hydrochloride monohydrate salt of RSV fusion inhibitor” (Bristol-Myers Squibb Company, priority 2001, dated 2004).
Like-named read-outs stand apart in the source and are kept apart here. Blank lines part the entries; values can stand above or below the compound they belong to.

Experiments:
[1] = tested on: respiratory syncytial virus Long strain; experiment: Antiviral activity against respiratory syncytial virus in HEp-2 cells (MTT cell protection); format: cell-based; settings: for EC50: human respiratory syncytial virus, read-out: EC50 (concentration that produces 50% cell protection)
Procedure: The antiviral activity of these compounds against respiratory syncytial virus was determined in HEp-2 (ATCC CCL 23) cells that were seeded in 96 well microtiter plates at 1.5×10^4 cells/100 μL/well in DMEM (Dulbecco's Modified Eagle's Medium) supplemented with penicillin, streptomycin, glutamine, and 10% fetal bovine serum. The cells were incubated overnight at 37° C., the culture medium was removed, and cells were infected (100 μL volume in medium containing 2% fetal bovine serum) with respiratory syncytial virus Long strain at 5000 plaque forming units/mL. The compounds, 100 μL at appropriate dilution, were added to the cells 1 hour post infection. After incubation for 4 days at 37° C., the plates were stained with MTT solution (3-[4,5-dimethlythiazol-2-yl]-2,5-diphenyltetrazolium bromide) and incubated for 4 hours at 37° C. The media was aspirated from the cells and 100 μL/well of acidified isopropanol (per liter: 900 mL isopropanol, 100 mL Triton X100, and 4 mL conc. HCl) was added. Plates were incubated for 15 minutes at room temperature with shaking, and an optical density (OD 540) reading at 540 nanometer (nm) was obtained. The optical density reading is proportional to the number of viable cells. The increase in the number of viable cells reflects the protective, antiviral activity of the compound. Assays comparing MTT staining in uninfected cells containing compound with uninfected cells in the absence of compound provide a measure of cellular toxicity.
The antiviral activity of compounds, designated as EC50, is presented as a concentration that produces 50% cell protection in the assay. […]

[2] = acid used as salt former; cited from earlier work

EC50 ([1]; 96 h, HEp-2 cells, RSV Long strain, 4 days, MTT): 3000 nM
Structure (SMILES): NC(=O)c1ncn([C@@H]2O[C@H](CO)[C@@H](O)[C@H]2O)n1 [Ribavirin]
cell protection ([1]; at 2.5 μg/mL (corresponding to 10.2 μM)): 100%

Structure (SMILES): O=c1n(Cc2nc3ccccc3n2CCCCO)c2cnccc2n1C1CC1 [compound II]
EC50 ([1]; HEp-2, 96 h): 60 nM

Structure (SMILES): O=C(O)/C=C/C(=O)O [fumaric acid]
first pKa [2]: ~3

Structure (SMILES): O=C(O)/C=C\C(=O)O [maleic acid]
first pKa [2]: ~2
